From US9187484B2 (Southern Research Institute, priority 2012, dated 2015)

What was measured:
[1] = molecular target: T1, LRRK2 (G2019S) (Homo sapiens, UniProt Q5S007, G2019S); experiment: LRRK2 inhibition, radiometric kinase assay with recombinant GST-LRRK2 (delta970) and peptide substrate; format: biochemical; settings: GST-LRRK2 (delta970) G2019S 30 nM, ATP ~52 μM (Km), 30 min at 30° C.
T1 construct: Recombinant GST-LRRK2 (delta970), purified from baculovirus infected insect cells (SF9); GST (N); host or cells: baculovirus infected insect cells (SF9)
T1 sequence (Q5S007 970-2527 G2019S limits assumed): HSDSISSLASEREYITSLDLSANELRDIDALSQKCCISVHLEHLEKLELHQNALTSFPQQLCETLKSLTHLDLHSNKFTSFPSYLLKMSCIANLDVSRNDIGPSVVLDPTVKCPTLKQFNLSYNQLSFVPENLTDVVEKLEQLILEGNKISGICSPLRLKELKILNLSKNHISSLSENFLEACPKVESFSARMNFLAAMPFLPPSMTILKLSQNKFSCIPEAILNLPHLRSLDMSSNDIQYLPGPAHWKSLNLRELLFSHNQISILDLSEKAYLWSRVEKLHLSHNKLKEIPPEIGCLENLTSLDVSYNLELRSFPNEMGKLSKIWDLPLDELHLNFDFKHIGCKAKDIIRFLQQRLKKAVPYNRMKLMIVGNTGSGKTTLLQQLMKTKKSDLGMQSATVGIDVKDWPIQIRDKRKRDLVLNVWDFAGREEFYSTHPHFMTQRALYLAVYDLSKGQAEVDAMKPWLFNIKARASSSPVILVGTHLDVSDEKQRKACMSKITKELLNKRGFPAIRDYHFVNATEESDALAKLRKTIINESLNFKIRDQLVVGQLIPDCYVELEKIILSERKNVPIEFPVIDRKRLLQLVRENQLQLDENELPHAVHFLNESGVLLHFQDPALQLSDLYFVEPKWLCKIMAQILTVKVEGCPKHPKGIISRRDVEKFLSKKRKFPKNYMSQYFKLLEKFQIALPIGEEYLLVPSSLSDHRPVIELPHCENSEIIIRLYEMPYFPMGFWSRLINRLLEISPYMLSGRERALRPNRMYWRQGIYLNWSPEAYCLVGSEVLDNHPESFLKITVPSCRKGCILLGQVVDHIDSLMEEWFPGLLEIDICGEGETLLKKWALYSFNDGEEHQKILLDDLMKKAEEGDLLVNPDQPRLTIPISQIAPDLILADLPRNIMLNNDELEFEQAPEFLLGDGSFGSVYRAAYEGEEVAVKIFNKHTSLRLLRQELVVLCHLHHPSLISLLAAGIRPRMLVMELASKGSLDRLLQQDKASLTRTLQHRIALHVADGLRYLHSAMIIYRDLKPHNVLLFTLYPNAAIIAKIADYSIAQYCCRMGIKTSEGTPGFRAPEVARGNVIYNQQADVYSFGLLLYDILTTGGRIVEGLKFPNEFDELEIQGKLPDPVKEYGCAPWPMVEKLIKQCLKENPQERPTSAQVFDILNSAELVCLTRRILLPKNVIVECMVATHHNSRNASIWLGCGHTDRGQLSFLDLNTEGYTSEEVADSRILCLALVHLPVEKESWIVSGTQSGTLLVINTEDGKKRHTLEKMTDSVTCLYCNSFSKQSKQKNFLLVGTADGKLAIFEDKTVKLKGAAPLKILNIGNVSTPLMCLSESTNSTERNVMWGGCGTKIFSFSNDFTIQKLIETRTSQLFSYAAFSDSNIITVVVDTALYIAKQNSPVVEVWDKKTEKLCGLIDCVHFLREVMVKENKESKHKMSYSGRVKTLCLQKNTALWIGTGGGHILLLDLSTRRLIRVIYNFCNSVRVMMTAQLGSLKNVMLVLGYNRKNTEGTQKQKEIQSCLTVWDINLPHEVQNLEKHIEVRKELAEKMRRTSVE
Summary of the method: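 Recombinant GST-LRRK2 (delta970) from SF9 cells, wild-type or G2019S, at 30 nM in 50 mM Tris HCl pH 7.4, 1 mM EDTA with 50 μM peptide substrate and 0.1% DMSO. ATP at Km (˜92 μM WT, ˜52 μM G2019S) with 10 mM MgCl2 and gamma-32-P label; 30 min at 30° C. Phosphocellulose capture, scintillation counting.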

[2] = tested on: WT-LRRK2 or G2019S-LRRK2; experiment: Inhibition of LRRK2 phosphorylation (pS935 antibody) in lysates of transfected HEK-293T cells; format: cell-based; settings: HEK-293T cells transiently transfected with either WT-LRRK2 or G2019S-LRRK2
From the text: To test whether Example 90 and Example 34 can inhibit LRRK2 phosphorylation, an antibody commercially available from Epitomics directed against the serine residue number 935 on LRRK2 from lysates generated from HEK-293T cells transiently transfected with either WT-LRRK2 or G2019S-LRRK2 protein.

[3] = tested on: G2019S-LRRK2; experiment: LPS-induced TNF-alpha in primary macrophages over-expressing G2019S-LRRK2; format: cell-based, mice; settings: 5 μM 1 hour prior to LPS stimulation (100 ng/ml), TNF-alpha measured 6 hours later
From the text: Recently, high levels of LRRK2 expression in primary microglia that are the immune cells of the nervous system have been discovered (Moehle et al., J. Neuroscience (2012), PMID 22302802). […] More recently, LRRK2 has also been detected in primary macrophages, specifically macrophages isolated after thioglycolate exposures in mice. To assess whether Example 90 can inhibit the G2019S-LRRK2 induced increase in TNF-alpha to wild-type levels of TNF-alpha induction by LPS, primary macrophages were exposed in culture to 5 μM 1 hour prior to LPS stimulation (100 ng/ml), and TNF-alpha levels were measured 6 hours later.

| SMILES | IC50 [1] [µM] | levels of pS935 on LRRK2 [2] | TNF-alpha levels (G2019S-LRRK2 induced increase) [3] |
| --- | --- | --- | --- |
| CCC(Sc1ccc2nnc(-c3cccs3)n2n1)C(=O)N1CCCCC1 (stereo not shown) [Example 34, 1-(piperidin-1-yl)-2-((3-(thiophen-2-yl)-[1,2,4]triazolo[4,3-b]pyridazin-6-yl)thio)butan-1-one] | < 0.1 | partially inhibited | – |
| CC(Sc1ccc2nnc(-c3cccs3)n2n1)C(=O)N1CCCCC1 (stereo not shown) [Example 90, 1-(piperidin-1-yl)-2-((3-(thiophen-2-yl)-[1,2,4]triazolo[4,3-b]pyridazin-6-yl)thio)propan-1-one] | < 0.1 | partially inhibited | successfully returned G2019S-LRRK2 over-expressing cells back to WT levels |
| CC(Sc1ccc2nnc(-c3ccn[nH]3)n2n1)C(=O)N1CCCCC1 (stereo not shown) [Example 115, 2-((3-(1H-pyrazol-5-yl)-[1,2,4]triazolo[4,3-b]pyridazin-6-yl)thio)-1-(piperidin-1-yl)propan-1-one] | 0.1 to 1 | – | – |
| CCCN(CCC)C(=O)C(C)Sc1ccc2nnc(-c3cccs3)n2n1 (stereo not shown) [Example 123, N,N-dipropyl-2-((3-(thiophen-2-yl)-[1,2,4]triazolo[4,3-b]pyridazin-6-yl)thio)propanamide] | 1 to 5 | – | – |
| CC(Sc1ccc2nnc(-c3nccs3)n2n1)C(=O)O (stereo not shown) [Example 124, 2-((3-(thiazol-2-yl)-[1,2,4]triazolo[4,3-b]pyridazin-6-yl)thio)propanoic acid] | 0.1 to 1 | – | – |
| CC(Sc1ccc2nnc(-c3nccs3)n2n1)C(=O)N1CCCCC1 (stereo not shown) [Example 125, 1-(piperidin-1-yl)-2-((3-(thiazol-2-yl)-[1,2,4]triazolo[4,3-b]pyridazin-6-yl)thio)propan-1-one] | 0.1 to 1 | – | – |
| CC(Sc1ccc2nnc(-c3nccs3)n2n1)C(=O)N1CCC1 (stereo not shown) [Example 126, 1-(azetidin-1-yl)-2-((3-(thiazol-2-yl)-[1,2,4]triazolo[4,3-b]pyridazin-6-yl)thio)propan-1-one] | 0.1 to 1 | – | – |
